# Assay results: article PMC11274883, “Anticancer Effect of Pt^[sequence], Pt^II5MESS, Pt^II56MESS and Their Platinum(IV)-Dihydroxy Derivatives against Triple-Negative Breast Cancer and Cisplatin-Resistant Colorectal Cancer” (Cancers, 2024)
# Experiments:
# Type in all cases: cell-based
# MDA−MB−231 3D networks = assay: 3D bioprinted culture cytotoxicity (WST-1); details: 72 h, mean ± SEM
# Excerpt: (§1) To evaluate the cytotoxic effect of platinum(II) and (IV) complexes in 3D cell culture, MDA−MB−231 or HT29 cells were used to bioprint networks or spheroids with the non-contact drop-on-demand 3D RASTRUM bioprinter (Inventia Life Science, Alexandria, NSW, Australia). The 3D cultures use two constituents: bioink and activator. Cell pellets (2 × 10^6 cells) were resuspended in an activator reagent which forms an instant gel after its addition to the bioink by the bioprinter. The 3D large plug cell model with polyethylene glycol bioinks formulated to mimic the properties of in vivo tissue were chosen as follows. Matrix Px02.31 (activator F177 and bioink F242 with RGD: Fibronectin) was used for MDA−MB−231 3D embedded networks, Px02.00 (activator F177 and bioink F119 without RGD additives, Table S1) was used for MDA−MB−231 spheroids and matrix #Px02.09 (activator F177 and bioink F236 with adhesion peptides including, RGD: Fibronectin, and GFOGER: collagen type I to recapitulate rich in vivo tissue extracellular environments) was used for HT29 spheroids (Inventia Life Science) (Table S1). Each cell line was printed at 10,000 cells/well and loaded with the bioink fluids into the selected printer cartridge. After the automated priming of all fluids into the printer nozzles, each cell line was individually printed on tissue culture plates (Nunc^TM MicroWell^TM 96-Well, Nunclon Delta-Treated, Flat-Bottom Microplate, ThermoFisher #167008), with RASTRUM creating the 3D Large Plug across the 96-well plate. Following completion of the print run, 200 μL DMEM culture medium was added to each well using multichannel pipettes. The plate was then incubated for 7 days (humidified incubator with 5% CO2 at 37 °C) for compact and homogenous spheroid formation before the cytotoxicity assay. When the spheroids developed, post-7-day incubation, media was removed and replaced with 100 µL DMEM. […] Cytotoxicity was then assessed using the WST-1 assay as previously described in Section 2.3.
# HT29 spheroids = assay: 3D bioprinted spheroid cytotoxicity (WST-1); details: 72 h, mean ± SEM
# Excerpt: as §1
# MDA−MB−231 spheroids = assay: 3D bioprinted spheroid cytotoxicity (WST-1); details: 72 h, mean ± SEM
# Excerpt: as §1
# HT29 cells = assay: Cellular uptake of Pt by ICP-MS; details: for Intracellular Concentration: HT29, 3 µM; for Intracellular/extracellular ratio: HT29, extracellular 3 µM
# Description: (§2) A final concentration of 10^6 cells/well of MDA−MB−231 and HT29 cells were seeded in 6-well plates and incubated overnight to adhere. The cells were then treated with a final concentration of 3 µM of either Pt^II or Pt^IV complexes. After 0, 0.5, 1, 3, 6, 12, 24 or 30 h, the medium was removed, and the cells were washed three times with cold PBS and allowed to dry. Then, 400 µL of 69% HNO3 (Baseline grade nitric acid with PPB level reported impurities, Seastar Chemicals, Sidney, BC, Canada) was added to each well for 90 min to ensure complete digestion. […] Iridium 193 (^193Ir) was mixed online and introduced into the ICP-MS to check uptake efficiency and matrix interference. All ICP-MS parameters are described in Table S2 and elaborated in Method S3. The results represent an average of three different experiments run in triplicate (±SEM) and expressed as nmol/10^6 cells or µM/cell. Quantification of the cellular uptake of Pt was based on external standards (Certified Standard from Sigma-Aldrich, VIC, Australia) containing Internal standard Ir.
# (§3) Method S3. Cellular Uptake of Platinum(II) and (IV) complexes
# (§4) A final concentration of 10^6 cells/well of MDA−MB−231 and HT29 cells were seeded in 6-well plates and incubated overnight to adhere. The cells were then treated with a final concentration of 3 µM of either PtII or PtIV complexes. After 0, 0.5, 1, 3, 6, 12, 24 or 30 h, the medium was removed, and the cells were washed three times with cold PBS and allowed to dry. Then, 400 µL of 69% HNO3 (Baseline grade nitric acid with Instrument Quality Grade Nitric acid with ppb level reported impurities, Seastar Chemicals, Sidney, Canada) was added to each well for 90 mins to ensure complete digestion. The digests were then moved to trace -metal free 15 mL centrifuge tubes […]
# (§5) concentration of 3.5-4%. Iridium 193 (193Ir), selected as internal standard, has similar first ionisation potential and mass to Platinum 195 (195Pt). A concentration of 50 ppb 193Ir in 2% HNO3 solution was chosen for the Perkin Elmer NexION® Inductively Coupled Plasma Mass Spectrometer (ICP-MS) as it produced a steady state signal intensity of 600-800K counts per second. Mixing and injection of sample and internal standard solution was carried out using an ESI 7 port Valve system (Elemental Scientific, USA). A high-quality Solvent Flex 2 stop pump with 0.38 mm ID tubing was used in conjunction with the ICP-MS’s Peristaltic pump set at 20 […]
# (§6) standard both, at 0.25 mL/min) being 0.5 mL/min. The ICP-MS was tuned to high sensitivity settings to facilitate detection of low Pt concentrations in samples. This was done by adjusting the nebuliser gas flow between […] to achieve maximum Indium 115 intensity whilst maintaining an acceptable average oxide and doubly charged ratio of 1.64-2.24% and 1.17-1.69% respectively. The analysis method was set to peak hopping mode with a dwell time of […] and 45 sweeps through the mass spectrum per sample read. […]
# (§7) peak integration time of 4500 milliseconds and enabled the collection of numerous data points for peak integration thereby increasing accuracy. The ICP-MS was tuned daily, and its performance optimised to a set of suppliers recommended settings. Analysis was only carried out when optimal oxide and doubly charged ratios with high ionic sensitivity was achieved. All ICP-MS parameters are described in Table S2. The results represent an average of three different experiments run in triplicates (± SEM) and expressed as nmol/106 cells or µM/cell. Quantification of the cellular uptake of Pt was based on external standards (Certified Standard from Sigma-Aldrich NSW, Australia) containing Internal standard Ir. […]
# MDA−MB−231 cells = assay: Cellular uptake of Pt by ICP-MS; details: for Intracellular Concentration: MDA−MB−231, 3 µM; for Intracellular/extracellular ratio: MDA−MB−231, extracellular 3 µM
# Description: as §2, §3, §4, §5, §6, §7
compound,measurement,setting,value
"Cc1c(C)c2cccnc2c2ncccc12.N[C@H]1CCCC[C@@H]1N.O=[N+]([O-])[O-].O=[N+]([O-])[O-].[Pt+2] [Pt^II56MESS, [Pt(5,6-dimethyl-1,10-phenanthroline)(1S,2S-diaminocyclohexane)](NO3)2]",IC50,MDA−MB−231 3D networks,0.98 ± 1.21 µM
same,IC50,HT29 spheroids,0.99 ± 1.29 µM
same,IC50,MDA−MB−231 spheroids,2.49 ± 1.98 µM
same,Intracellular Concentration,HT29 cells; 0 h,0.45 nmol/10^6 cells
same,Intracellular Concentration,HT29 cells; 0.5 h,0.87 nmol/10^6 cells
same,Intracellular Concentration,HT29 cells; 1 h,1.38 nmol/10^6 cells
same,Intracellular Concentration,HT29 cells; 3 h,2.23 nmol/10^6 cells
same,Intracellular Concentration,HT29 cells; 6 h,5.05 nmol/10^6 cells
same,Intracellular Concentration,HT29 cells; 12 h,17.67 nmol/10^6 cells
same,Intracellular Concentration,HT29 cells; 24 h,23.28 nmol/10^6 cells
same,Intracellular Concentration,HT29 cells; 30 h,24.85 nmol/10^6 cells
same,intracellular/extracellular ratio relative to the maximum ratio of cisplatin,"HT29 cells; HT29, 30 h",34.8 fold
same,Intracellular/extracellular ratio,HT29 cells; 0 h,70.93
same,Intracellular/extracellular ratio,HT29 cells; 0.5 h,136.74
same,Intracellular/extracellular ratio,HT29 cells; 1 h,216.82
same,Intracellular/extracellular ratio,HT29 cells; 3 h,350.73
same,Intracellular/extracellular ratio,HT29 cells; 6 h,793.80
same,Intracellular/extracellular ratio,HT29 cells; 12 h,2776.28
same,Intracellular/extracellular ratio,HT29 cells; 24 h,3657.59
same,Intracellular/extracellular ratio,"HT29 cells; 30 h, listed as 56MESS",~3904
same,Intracellular/extracellular ratio,"HT29 cells; 30 h, listed as PtII56MESS",3903.51
same,drug's concentration per cell,"HT29 cells; per HT29 cell, cell volume 1.7 pL, starting concentration 3 µM","~11,711 µM"
same,Intracellular Concentration,MDA−MB−231 cells; 0 h,0.68 nmol/10^6 cells
same,Intracellular Concentration,MDA−MB−231 cells; 0.5 h,0.58 nmol/10^6 cells
same,Intracellular Concentration,MDA−MB−231 cells; 1 h,0.78 nmol/10^6 cells
same,Intracellular Concentration,MDA−MB−231 cells; 3 h,1.24 nmol/10^6 cells
same,Intracellular Concentration,MDA−MB−231 cells; 6 h,1.88 nmol/10^6 cells
same,Intracellular Concentration,MDA−MB−231 cells; 12 h,4.80 nmol/10^6 cells
same,Intracellular Concentration,MDA−MB−231 cells; 24 h,5.38 nmol/10^6 cells
same,Intracellular Concentration,MDA−MB−231 cells; 30 h,11.24 nmol/10^6 cells
same,intracellular/extracellular ratio relative to the maximum ratio of cisplatin,"MDA−MB−231 cells; MDA−MB−231, 30 h",8.7 fold
same,Intracellular/extracellular ratio,MDA−MB−231 cells; 0 h,107.16
same,Intracellular/extracellular ratio,MDA−MB−231 cells; 0.5 h,92.36
same,Intracellular/extracellular ratio,MDA−MB−231 cells; 1 h,122.42
same,Intracellular/extracellular ratio,MDA−MB−231 cells; 3 h,195.59
same,Intracellular/extracellular ratio,MDA−MB−231 cells; 6 h,296.93
same,Intracellular/extracellular ratio,MDA−MB−231 cells; 12 h,754.52
same,Intracellular/extracellular ratio,MDA−MB−231 cells; 24 h,845.27
same,Intracellular/extracellular ratio,MDA−MB−231 cells; 30 h,1765.95 ± 526.75
same,Intracellular/extracellular ratio,"MDA−MB−231 cells; 30 h, listed as 56MESS",around 1766
same,Intracellular/extracellular ratio,"MDA−MB−231 cells; 30 h, listed as PtII56MESS",1765.95
same,drug's concentration per cell,"MDA−MB−231 cells; per MDA−MB−231 cell, cell volume 1.7 pL, starting concentration 3 µM",about 5298 µM
"N[C@H]1CCCC[C@@H]1N.O=[N+]([O-])[O-].O=[N+]([O-])[O-].[OH-].[OH-].[Pt+4].c1cnc2c(c1)ccc1cccnc12 [[Pt(1,10-phenanthroline)(1S,2S-diaminocyclohexane)(dihydroxy)](NO3)2]",IC50,MDA−MB−231 3D networks,6.18 ± 1.62 µM
same,IC50,HT29 spheroids,11.4 ± 1.31 µM
same,IC50,MDA−MB−231 spheroids,13.5 ± 1.25 µM
same,Intracellular Concentration,HT29 cells; 0 h,0.10 nmol/10^6 cells
same,Intracellular Concentration,HT29 cells; 0.5 h,0.10 nmol/10^6 cells
same,Intracellular Concentration,HT29 cells; 1 h,0.18 nmol/10^6 cells
same,Intracellular Concentration,HT29 cells; 3 h,0.33 nmol/10^6 cells
same,Intracellular Concentration,HT29 cells; 6 h,0.77 nmol/10^6 cells
same,Intracellular Concentration,HT29 cells; 12 h,3.64 nmol/10^6 cells
same,Intracellular Concentration,HT29 cells; 24 h,5.18 nmol/10^6 cells
same,Intracellular Concentration,HT29 cells; 30 h,5.79 nmol/10^6 cells
same,Intracellular/extracellular ratio,HT29 cells; 0 h,16.45
same,Intracellular/extracellular ratio,HT29 cells; 0.5 h,15.93
same,Intracellular/extracellular ratio,HT29 cells; 1 h,28.08
same,Intracellular/extracellular ratio,HT29 cells; 3 h,51.34
same,Intracellular/extracellular ratio,HT29 cells; 6 h,121.19
same,Intracellular/extracellular ratio,HT29 cells; 12 h,571.26
same,Intracellular/extracellular ratio,HT29 cells; 24 h,813.09
same,Intracellular/extracellular ratio,HT29 cells; 30 h,909.81
same,Intracellular Concentration,MDA−MB−231 cells; 0 h,0.13 nmol/10^6 cells
same,Intracellular Concentration,MDA−MB−231 cells; 0.5 h,0.13 nmol/10^6 cells
same,Intracellular Concentration,MDA−MB−231 cells; 1 h,0.223 nmol/10^6 cells
same,Intracellular Concentration,MDA−MB−231 cells; 3 h,0.16 nmol/10^6 cells
same,Intracellular Concentration,MDA−MB−231 cells; 6 h,0.25 nmol/10^6 cells
same,Intracellular Concentration,MDA−MB−231 cells; 12 h,0.63 nmol/10^6 cells
same,Intracellular Concentration,MDA−MB−231 cells; 24 h,0.78 nmol/10^6 cells
same,Intracellular Concentration,MDA−MB−231 cells; 30 h,1.29 nmol/10^6 cells
same,Intracellular/extracellular ratio,MDA−MB−231 cells; 0 h,21.21
same,Intracellular/extracellular ratio,MDA−MB−231 cells; 0.5 h,20.07
same,Intracellular/extracellular ratio,MDA−MB−231 cells; 1 h,35.47
same,Intracellular/extracellular ratio,MDA−MB−231 cells; 3 h,26.14
same,Intracellular/extracellular ratio,MDA−MB−231 cells; 6 h,38.82
same,Intracellular/extracellular ratio,MDA−MB−231 cells; 12 h,98.56
same,Intracellular/extracellular ratio,MDA−MB−231 cells; 24 h,123.87
same,Intracellular/extracellular ratio,MDA−MB−231 cells; 30 h,203.38
